From patent publication US9266876B2 (Actelion Pharmaceuticals Ltd., priority 2012, dated 2016)
Read-outs that look alike come from different tables or passages of the source.

Tests used:
tumor cells = conditions: administration of AMG487; Pradelli, E. et al. Int J Cancer 2009, 125, 2586; cited from earlier work
CXCR3 = CXCR3 (Homo sapiens (Human), UniProt P49682); assay: Receptor internalization assay; assay type: cell-based; conditions: read-out: Internalization IC50
How it was run: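 In human whole blood, compounds were incubated with CXCL10 (9 nM final) for 30 min at 37 °C to drive receptor internalization, then stained with anti-CXCR3/CD3 antibodies and lysed of red cells. Flow cytometry measured mean surface CXCR3 fluorescence on CD3+ cells, and IC50 came from single-site dose-response fits.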

human CXCR3A = human CXCR3A (Homo sapiens (Human), UniProt P49682); assay: FLIPR assay; assay type: cell-based; conditions: CHO-K1 cells expressing the human CXCR3A coupled to Galpha(16); CXCL10 agonist 20 nM; Fluo-4-AM fluorescence; mean values if determined several times
How it was run: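 CHO-K1 cells expressing CXCR3A coupled to Gα16 were loaded with Fluo-4-AM for 1 h in Hepes-buffered HBSS, pH 7.4, with 5 mM probenecid. Compound dilutions were added on the FLIPR, followed by CXCL10 (added as a 20 nM solution). Baseline-subtracted peak fluorescence was fitted to a single-site curve for IC50.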

[1] = human whole blood, final CXCL10 concentration 9 nM, 30 min 37° C., CXCR3 cell surface expression on CD3 positive cells, flow cytometer

Chain of human CXCR3A (P49682 whole entry): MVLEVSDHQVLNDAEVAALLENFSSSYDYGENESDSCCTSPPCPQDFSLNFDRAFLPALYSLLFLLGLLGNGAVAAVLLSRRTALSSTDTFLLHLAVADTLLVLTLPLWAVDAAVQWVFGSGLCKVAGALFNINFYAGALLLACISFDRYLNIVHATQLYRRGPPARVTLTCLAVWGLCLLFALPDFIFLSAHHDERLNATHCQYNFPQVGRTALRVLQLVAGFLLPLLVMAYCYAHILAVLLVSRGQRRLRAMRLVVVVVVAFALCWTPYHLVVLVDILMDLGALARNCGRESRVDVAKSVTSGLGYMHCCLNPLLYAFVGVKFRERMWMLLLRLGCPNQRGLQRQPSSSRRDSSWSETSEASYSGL
Chain of CXCR3 (P49682 whole entry): as above

SMILES	metastasis of tumor cells to the lungs (tumor cells)	IC50 (CXCR3; [1])	IC50 (human CXCR3A)	IC50 (CXCR3)
CCOc1ccc(-n2c([C@@H](C)N(Cc3cccnc3)C(=O)Cc3ccc(OC(F)(F)F)cc3)nc3ncccc3c2=O)cc1 [AMG487]	could limit the metastasis of tumor cells to the lungs	–	–	–
Cc1nc(C)n(CC(=O)N2CCN(c3sc(C(F)(F)F)nc3-c3nc4ccc(-n5cncn5)cc4[nH]3)C[C@H]2C)n1 [Example 234, 2-(3,5-Dimethyl-[1,2,4]triazol-1-yl)-1-{(R)-2-methyl-4-[4-(6-[1,2,4]triazol-1-yl-1H-benzoimidazol-2-yl)-2-trifluoromethyl-thiazol-5-yl]-piperazin-1-yl}-ethanone]	–	822 nM	6 nM	–
Cc1nc(C)n(CC(=O)N2CCN(c3sc(C(F)(F)F)nc3-c3nc4ccc(-c5noc(C)n5)cc4[nH]3)C[C@H]2C)n1 [Example 236, 2-(3,5-Dimethyl-[1,2,4]triazol-1-yl)-1-((R)-2-methyl-4-{4-[6-(5-methyl-[1,2,4]oxadiazol-3-yl)-1H-benzoimidazol-2-yl]-2-trifluoromethyl-thiazol-5-yl}-piperazin-1-yl)-ethanone]	–	265 nM	3 nM	–
Cc1nc(C)n(CC(=O)N2CCN(c3sc(C(F)(F)F)nc3-c3nc4ccc(C5CCN(C)CC5)cc4[nH]3)C[C@H]2C)n1 [Example 237, 2-(3,5-Dimethyl-[1,2,4]triazol-1-yl)-1-((R)-2-methyl-4-{4-[6-(1-methyl-piperidin-4-yl)-1H-benzoimidazol-2-yl]-2-trifluoromethyl-thiazol-5-yl}-piperazin-1-yl)-ethanone]	–	–	2 nM	84 nM
Cc1nc(C)n(CC(=O)N2CCN(c3sc(C(F)(F)F)nc3-c3nc4ccc(C5CCOCC5)cc4[nH]3)C[C@H]2C)n1 [Example 238, 2-(3,5-Dimethyl-[1,2,4]triazol-1-yl)-1-((R)-2-methyl-4-{4-[6-(tetrahydro-pyran-4-yl)-1H-benzoimidazol-2-yl]-2-trifluoromethyl-thiazol-5-yl}-piperazin-1-yl)-ethanone]	–	103 nM	1 nM	–
Cc1nc(C)n(CC(=O)N2CCN(c3sc(C(F)(F)F)nc3-c3nc4cc(CCN)ccc4[nH]3)C[C@H]2C)n1 [Example 239, 1-((R)-4-{4-[5-(2-Amino-ethyl)-1H-benzoimidazol-2-yl]-2-trifluoromethyl-thiazol-5-yl}-2-methyl-piperazin-1-yl)-2-(3,5-dimethyl-[1,2,4]triazol-1-yl)-ethanone]	–	324 nM	0.1 nM	–
Cc1nc(C)n(CC(=O)N2CCN(c3sc(C(F)(F)F)nc3-c3nc4ccc(C5CCNCC5)cc4[nH]3)C[C@H]2C)n1 [Example 240, 2-(3,5-Dimethyl-[1,2,4]triazol-1-yl)-1-{(R)-2-methyl-4-[4-(6-piperidin-4-yl-1H-benzoimidazol-2-yl)-2-trifluoromethyl-thiazol-5-yl]-piperazin-1-yl}-ethanone]	–	222 nM	2 nM	–
Cc1nc(C)n(CC(=O)N2CCN(c3sc(C(F)(F)F)nc3-c3nc4cc(OC(F)(F)F)ccc4[nH]3)C[C@H]2C)n1 [Example 241, 2-(3,5-Dimethyl-[1,2,4]triazol-1-yl)-1-{(R)-2-methyl-4-[4-(5-trifluoromethoxy-1H-benzoimidazol-2-yl)-2-trifluoromethyl-thiazol-5-yl]-piperazin-1-yl}-ethanone]	–	169 nM	2 nM	–
Cc1nc(C)n(CC(=O)N2CCN(c3sc(C(F)(F)F)nc3-c3nc4ccc(OC5CNC5)cc4[nH]3)C[C@H]2C)n1 [Example 242, 1-((R)-4-{4-[6-(Azetidin-3-yloxy)-1H-benzoimidazol-2-yl]-2-trifluoromethyl-thiazol-5-yl}-2-methyl-piperazin-1-yl)-2-(3,5-dimethyl-[1,2,4]triazol-1-yl)-ethanone]	–	438 nM	4 nM	–
Cc1nc(C)n(CC(=O)N2CCN(c3sc(C(F)(F)F)nc3-c3nc4ccccc4[nH]3)C[C@@H]2C)n1 [Example 243, 1-{(S)-4-[4-(1H-Benzoimidazol-2-yl)-2-trifluoromethyl-thiazol-5-yl]-2-methyl-piperazin-1-yl}-2-(3,5-dimethyl-[1,2,4]triazol-1-yl)-ethanone]	–	1120 nM	3 nM	–
Cc1nc(C)n(CC(=O)N2CCN(c3sc(C(F)(F)F)nc3-c3nc4ccc(CCN5CCCC5)cc4[nH]3)C[C@H]2C)n1 [Example 244, 2-(3,5-Dimethyl-[1,2,4]triazol-1-yl)-1-((R)-2-methyl-4-{4-[6-(2-pyrrolidin-1-yl-ethyl)-1H-benzoimidazol-2-yl]-2-trifluoromethyl-thiazol-5-yl}-piperazin-1-yl)-ethanone]	–	531 nM	23 nM	–
